Read-outs that look alike come from different tables or passages of the source.
Key:
[1] = test system: murine leukemia (L1210) cells; assay: Cytostatic activity, L1210 cell proliferation; format: cell-based; conditions: Mus musculus, read-out: IC50 L1210
Experimental: (§1) All assays were performed in 96-well microtiter plates. To each well were added (5–7.5) × 10^4 tumor cells and a given amount of the test compound. The cells were allowed to proliferate for 48 h (murine leukemia L1210 cells) or 72 h (human lymphocytic CEM and human cervix carcinoma HeLa cells) at 37 °C in a humidified CO2-controlled atmosphere. At the end of the incubation period, the cells were counted in a Coulter counter.

[2] = test system: human T-lymphocyte (CEM) cells; assay: Cytostatic activity, CEM cell proliferation; format: cell-based; conditions: CCRF-CEM, 72 h, read-out: IC50 CEM
Experimental: as §1

[3] = test system: human cervix carcinoma cells (HeLa); assay: Cytostatic activity, HeLa cell proliferation; format: cell-based; conditions: 72 h, read-out: IC50 HeLa
Experimental: as §1

[4] = test system: human dermal microvascular endothelial HMEC-1 cells; assay: Cytostatic activity, HMEC-1 cell proliferation; format: cell-based
TK+ VZV strain = assay: microbe, parasite or virus in culture; format: cell-based, varicella-zoster virus (VZV) strain Oka
TK− VZV strain = assay: microbe, parasite or virus in culture; format: cell-based, varicella-zoster virus (VZV) strain 07−1; conditions: Human alphaherpesvirus 3, HEL, read-out: Antiviral Activity EC50, TK− VZV Strain, HEL cell cultures; concentration reducing virus plaque formation by 50%
HEL cells = assay: Cytotoxicity, cell morphology (MCC) in HEL cells; format: cell-based, human; conditions: minimum cytotoxic concentration causing microscopically detectable alteration of cell morphology
Source text: The cytotoxicity of the tested compounds toward the uninfected host cells was defined as the minimum cytotoxic concentration (MCC) that causes a microscopically detectable alteration of normal cell morphology.

| Structure (SMILES) | IC50 ([1]; L1210, 48 h) | IC50 [2] | IC50 [3] | melting point | IC50 ([4]; HMEC-1, read-out: IC50 HMEC-1) | IC50 ([1]; L1210, cell proliferation, 48 h) | IC50 ([2]; cell proliferation) | IC50 ([3]; cell proliferation) | IC50 ([4]; HMEC-1, cell proliferation, read-out: IC50 HMEC-1) | Potency toward the TK+ VZV strain (in words) (TK+ VZV strain; HEL cell cultures) | EC50 (TK+ VZV strain; Human alphaherpesvirus 3, HEL, read-out: Antiviral Activity EC50, TK+ VZV Strain, HEL cell cultures, concentration reducing virus plaque formation by 50%) | EC50 (TK− VZV strain) | Cytotoxicity, Cell Morphology (MCC) (HEL cells) |
| --- | --- | --- | --- | --- | --- | --- | --- | --- | --- | --- | --- | --- | --- |
| CCOP(=O)(CCCCn1cc(CN2C(=O)c3cccc4cc(N)cc(c34)C2=O)nn1)OCC [Compound 17d, Diethyl 4-{4-[(5-Amino-1,3-dioxo-1H-benzo[de]isoquinolin-2(3H)-yl)methyl]-1H-1,2,3-triazol-1-yl}butylphosphonate] | > 250 µM | > 250 µM | 116 ± 60 µM | 218 to 220 °C |  |  |  |  |  |  |  |  |  |
| CCOP(=O)(CC(O)Cn1cc(CN2C(=O)c3cccc4cc(N)cc(c34)C2=O)nn1)OCC (centres unmarked) [Compound 17f, Diethyl 3-{4-[(5-Amino-1,3-dioxo-1H-benzo[de]isoquinolin-2(3H)-yl)methyl]-1H-1,2,3-triazol-1-yl}-2-hydroxypropylphosphonate] | > 250 µM | > 250 µM | 130 ± 77 µM | 222 to 224 °C |  |  |  |  |  |  |  |  |  |
| CCOP(=O)(CNC(=O)Cn1cc(CN2C(=O)c3cccc4c(Br)ccc(c34)C2=O)nn1)OCC [Compound 15i, Diethyl 2-{4-[(6-Bromo-1,3-dioxo-1H-benzo[de]isoquinolin-2(3H)-yl)methyl]-1H-1,2,3-triazol-1-yl}acetamido-methylphosphonate] | 31 ± 2 µM | 137 ± 72 µM | > 250 µM | 173 to 174 °C | > 250 µM |  |  |  |  |  |  |  |  |
| C#CCN1C(=O)c2cccc3cccc(c23)C1=O [Compound 7, 2-(Prop-2-yn-1-yl)-1H-benzo[de]isoquinoline-1,3(2H)-dione] |  |  |  | 239 to 240 °C |  | > 250 µM | 206 ± 42 µM | 48 ± 8 µM | 138 ± 38 µM |  |  |  |  |
| CCOP(=O)(CCOCCn1cc(CN2C(=O)c3cccc4cc(N)cc(c34)C2=O)nn1)OCC [Compound 17h, Diethyl 2-(2-{4-[(5-Amino-1,3-dioxo-1H-benzo[de]isoquinolin-2(3H)-yl)methyl]-1H-1,2,3-triazol-1-yl}ethoxy)ethylphosphonate] | 142 ± 2 µM | 109 ± 3 µM | 66 ± 3 µM | 180 to 183 °C |  |  |  |  |  |  |  |  |  |
| CCOP(=O)(CCn1cc(CN2C(=O)c3cccc4cc([N+](=O)[O-])cc(c34)C2=O)nn1)OCC [Compound 16b, Diethyl 2-{4-[(5-Nitro-1,3-dioxo-1H-benzo[de]isoquinolin-2(3H)-yl)methyl]-1H-1,2,3-triazol-1-yl}ethylphosphonate] | > 250 µM | 176 ± 37 µM | 54 ± 21 µM |  | 118 ± 71 µM |  |  |  |  | no potency | > 100 µM | 27.6 µM | 100 μM |
| CCOP(=O)(CCCn1cc(CN2C(=O)c3cccc4cc(N)cc(c34)C2=O)nn1)OCC [Compound 17c, Diethyl 3-{4-[(5-Amino-1,3-dioxo-1H-benzo[de]isoquinolin-2(3H)-yl)methyl]-1H-1,2,3-triazol-1-yl}propylphosphonate] | > 250 µM | ≥ 250 µM | ≥ 250 µM | 180 to 182 °C |  |  |  |  |  |  |  |  |  |
| CCOP(=O)(Cn1cc(CN2C(=O)c3cccc4cc(N)cc(c34)C2=O)nn1)OCC [Compound 17a, Diethyl {4-[(5-Amino-1,3-dioxo-1H-benzo[de]isoquinolin-2(3H)-yl)methyl]-1H-1,2,3-triazol-1-yl}methylphosphonate] | 177 ± 76 µM | 214 ± 5 µM | 101 ± 78 µM |  |  |  |  |  |  |  |  |  |  |
| CCOP(=O)(OCC)C(O)Cn1cc(CN2C(=O)c3cccc4cc(N)cc(c34)C2=O)nn1 (centres unmarked) [Compound 17e, Diethyl 2-{4-[(5-Amino-1,3-dioxo-1H-benzo[de]isoquinolin-2(3H)-yl)methyl]-1H-1,2,3-triazol-1-yl}-1-hydroxyethylphosphonate] | > 250 µM | > 250 µM | 72 ± 58 µM | 170 to 172 °C |  |  |  |  |  |  |  |  |  |
| CCOP(=O)(COCCn1cc(CN2C(=O)c3cccc4c(Br)ccc(c34)C2=O)nn1)OCC [Compound 15g, Diethyl 2-{4-[(6-Bromo-1,3-dioxo-1H-benzo[de]isoquinolin-2(3H)-yl)methyl]-1H-1,2,3-triazol-1-yl}ethoxy-methylphosphonate] | 24 ± 3 µM | 66 ± 20 µM | 84 ± 16 µM |  | 152 ± 1 µM |  |  |  |  |  |  |  |  |
| CCOP(=O)(Cn1cc(CN2C(=O)c3cccc4cccc(c34)C2=O)nn1)OCC [Compound 14a] | > 250 µM | 187 ± 25 µM | > 250 µM | 110 to 111 °C | > 250 µM |  |  |  |  |  |  |  |  |
| CCOP(=O)(CNC(=O)Cn1cc(CN2C(=O)c3cccc4cccc(c34)C2=O)nn1)OCC [Compound 14i, Diethyl 2-{4-[(1,3-Dioxo-1H-benzo[de]isoquinolin-2(3H)-yl)methyl]-1H-1,2,3-triazol-1-yl}acetamido-methylphosphonate] | > 250 µM | ≥ 250 µM | > 250 µM | 170 to 171 °C | > 250 µM |  |  |  |  |  |  |  |  |
| CCOP(=O)(CNC(=O)Cn1cc(CN2C(=O)c3cccc4cc([N+](=O)[O-])cc(c34)C2=O)nn1)OCC [Compound 16i, Diethyl 2-{4-[(5-Nitro-1,3-dioxo-1H-benzo[de]isoquinolin-2(3H)-yl)methyl]-1H-1,2,3-triazol-1-yl}acetamido-methylphosphonate] | > 250 µM | > 250 µM | 86 ± 6 µM | 217 to 219 °C | > 250 µM |  |  |  |  |  |  |  |  |
| CCOP(=O)(COCCn1cc(CN2C(=O)c3cccc4cccc(c34)C2=O)nn1)OCC [Compound 14g, Diethyl 2-{4-[(1,3-Dioxo-1H-benzo[de]isoquinolin-2(3H)-yl)methyl]-1H-1,2,3-triazol-1-yl}ethoxy-methylphosphonate] | > 250 µM | 168 ± 29 µM | 215 ± 49 µM | 154 to 155 °C | ≥ 250 µM |  |  |  |  |  |  |  |  |
| CCOP(=O)(CC(O)Cn1cc(CN2C(=O)c3cccc4cccc(c34)C2=O)nn1)OCC (centres unmarked) [Compound 14f, Diethyl 3-{4-[(1,3-Dioxo-1H-benzo[de]isoquinolin-2(3H)-yl)methyl]-1H-1,2,3-triazol-1-yl}-2-hydroxypropylphosphonate] | > 250 µM | 158 ± 4 µM | 168 ± 26 µM | > 260 °C | > 250 µM |  |  |  |  |  |  |  |  |
| CCOP(=O)(OCC)C(O)Cn1cc(CN2C(=O)c3cccc4c(Br)ccc(c34)C2=O)nn1 (centres unmarked) [Compound 15e, Diethyl 2-{4-[(6-Bromo-1,3-dioxo-1H-benzo[de]isoquinolin-2(3H)-yl)methyl]-1H-1,2,3-triazol-1-yl}-1-hydroxyethylphosphonate] | 42 ± 15 µM | 196 ± 60 µM | > 250 µM | 198 to 200 °C | > 250 µM |  |  |  |  |  |  |  |  |
| CCOP(=O)(COCCn1cc(CN2C(=O)c3cccc4cc(N)cc(c34)C2=O)nn1)OCC [Compound 17g, Diethyl 2-{4-[(5-Amino-1,3-dioxo-1H-benzo[de]isoquinolin-2(3H)-yl)methyl]-1H-1,2,3-triazol-1-yl}ethoxy-methylphosphonate] | > 250 µM | > 250 µM | 97 ± 42 µM | 221 to 223 °C |  |  |  |  |  |  |  |  |  |
| CCOP(=O)(Cn1cc(CN2C(=O)c3cccc4c(Br)ccc(c34)C2=O)nn1)OCC [Compound 15a, Diethyl {4-[(6-Bromo-1,3-dioxo-1H-benzo[de]isoquinolin-2(3H)-yl)methyl]-1H-1,2,3-triazol-1-yl}methylphosphonate] | 28 ± 1 µM | 60 ± 27 µM | 88 ± 5 µM | 158 to 159 °C | 185 ± 40 µM |  |  |  |  |  |  |  |  |
| CCOP(=O)(CCn1cc(CN2C(=O)c3cccc4cccc(c34)C2=O)nn1)OCC [Compound 14b, Diethyl 2-{4-[(1,3-Dioxo-1H-benzo[de]isoquinolin-2(3H)-yl)methyl]-1H-1,2,3-triazol-1-yl}ethylphosphonate] | > 250 µM | 148 ± 59 µM | 204 ± 65 µM | 63 to 64 °C | > 250 µM |  |  |  |  |  |  |  |  |
| CCOP(=O)(CCCn1cc(CN2C(=O)c3cccc4c(Br)ccc(c34)C2=O)nn1)OCC [Compound 15c, Diethyl 3-{4-[(6-Bromo-1,3-dioxo-1H-benzo[de]isoquinolin-2(3H)-yl)methyl]-1H-1,2,3-triazol-1-yl}propylphosphonate] | 20 ± 3 µM | 52 ± 34 µM | 62 ± 1 µM | 118 to 120 °C | 152 µM |  |  |  |  |  |  |  |  |
| CCOP(=O)(CNC(=O)Cn1cc(CN2C(=O)c3cccc4cc(N)cc(c34)C2=O)nn1)OCC [Compound 17i, Diethyl 2-{4-[(5-Amino-1,3-dioxo-1H-benzo[de]isoquinolin-2(3H)-yl)methyl]-1H-1,2,3-triazol-1-yl}acetamido-methylphosphonate] | > 250 µM | > 250 µM | 112 ± 58 µM | 222 to 224 °C |  |  |  |  |  |  |  |  |  |
| CCOP(=O)(CCn1cc(CN2C(=O)c3cccc4cc(N)cc(c34)C2=O)nn1)OCC [Compound 17b, Diethyl 2-{4-[(5-Amino-1,3-dioxo-1H-benzo[de]isoquinolin-2(3H)-yl)methyl]-1H-1,2,3-triazol-1-yl}ethylphosphonate] | > 250 µM | 120 ± 7 µM | 69 ± 12 µM |  |  |  |  |  |  |  |  |  |  |
